Reference: paper PMC6522912, “Evaluation of the published kinase inhibitor set to identify multiple inhibitors of bacterial ATP-dependent mur ligases” (Journal of Enzyme Inhibition and Medicinal Chemistry, 2019)
Read-outs that look alike come from different tables or passages of the source.

What was measured:
[1] = target: E. coli MurC (Escherichia coli, UniProt P17952); experiment: Malachite green inhibition assay, MurC; assay type: biochemical; details: for remaining activity at 100 µM: 0.25 h; for RA (%) MurC: Table S3, aza stilbene compounds
[2] = target: E. coli MurD (Escherichia coli, UniProt P14900); experiment: biochemical; details: for remaining activity at 100 µM: 0.25 h, read-out: RA [%] at 100 µM MurD
Summary of the method: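 Orthophosphate released by E. coli MurD quantified by malachite green (Biomol green) absorbance at 650 nm after 15 min at 37 °C. Residual activity relative to DMSO-only controls.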

[3] = target: E. coli MurF (Escherichia coli, UniProt P11880); experiment: biochemical; details: for remaining activity at 100 µM: 0.25 h, read-out: RA [%] at 100 µM MurF; for RA (%) MurF: Table S3, aza stilbene compounds
[4] = Table S1, PKIS screening, read-out: RA [%] at 100 µM MurC
[5] = read-out: RA [%] at 100 µM MurC, Table S1, PKIS screening

Sequence of E. coli MurD (P14900 whole entry): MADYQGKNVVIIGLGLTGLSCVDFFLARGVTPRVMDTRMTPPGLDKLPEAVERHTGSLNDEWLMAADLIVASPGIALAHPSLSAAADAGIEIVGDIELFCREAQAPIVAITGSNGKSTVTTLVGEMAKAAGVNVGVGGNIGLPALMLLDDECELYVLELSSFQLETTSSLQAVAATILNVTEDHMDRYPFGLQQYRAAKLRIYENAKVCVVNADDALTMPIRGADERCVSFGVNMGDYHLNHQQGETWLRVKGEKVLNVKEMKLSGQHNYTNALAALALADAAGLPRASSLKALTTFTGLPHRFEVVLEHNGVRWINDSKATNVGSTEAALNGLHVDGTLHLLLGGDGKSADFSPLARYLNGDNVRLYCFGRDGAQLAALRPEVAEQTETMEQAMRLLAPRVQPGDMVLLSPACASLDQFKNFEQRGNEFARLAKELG
Sequence of E. coli MurC (P17952 whole entry): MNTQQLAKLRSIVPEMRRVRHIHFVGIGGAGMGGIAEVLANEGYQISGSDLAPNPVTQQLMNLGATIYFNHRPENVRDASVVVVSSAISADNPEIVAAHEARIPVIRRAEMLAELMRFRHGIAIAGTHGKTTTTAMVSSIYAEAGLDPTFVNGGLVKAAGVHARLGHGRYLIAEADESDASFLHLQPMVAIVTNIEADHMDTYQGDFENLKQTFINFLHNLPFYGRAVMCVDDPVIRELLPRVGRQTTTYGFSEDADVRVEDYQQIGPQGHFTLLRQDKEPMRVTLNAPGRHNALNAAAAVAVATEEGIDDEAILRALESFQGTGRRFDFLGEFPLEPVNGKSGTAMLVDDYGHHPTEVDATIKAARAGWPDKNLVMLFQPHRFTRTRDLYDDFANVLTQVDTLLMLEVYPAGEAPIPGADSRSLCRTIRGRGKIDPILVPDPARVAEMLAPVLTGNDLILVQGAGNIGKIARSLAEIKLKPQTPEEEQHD
Sequence of E. coli MurF (P11880 whole entry): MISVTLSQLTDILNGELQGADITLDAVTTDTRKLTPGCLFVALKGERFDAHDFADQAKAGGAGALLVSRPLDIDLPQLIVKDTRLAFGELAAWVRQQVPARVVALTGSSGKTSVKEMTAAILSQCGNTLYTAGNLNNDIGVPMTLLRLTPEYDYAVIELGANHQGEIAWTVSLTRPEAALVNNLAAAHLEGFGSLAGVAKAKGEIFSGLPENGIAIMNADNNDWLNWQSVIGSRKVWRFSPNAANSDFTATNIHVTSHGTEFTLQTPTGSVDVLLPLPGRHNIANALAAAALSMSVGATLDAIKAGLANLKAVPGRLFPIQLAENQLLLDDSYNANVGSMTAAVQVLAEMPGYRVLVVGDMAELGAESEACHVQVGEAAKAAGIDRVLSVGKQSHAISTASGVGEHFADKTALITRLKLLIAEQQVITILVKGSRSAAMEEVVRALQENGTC

Compound	remaining activity at 100 µM [1, 4]	remaining activity at 100 µM ([2]; Table S1, PKIS screening)	remaining activity at 100 µM ([3]; Table S1, PKIS screening)	other results
CCn1c(-c2nonc2N)nc2c(C#CC(C)(C)O)nc(OC[C@@H](N)c3ccccc3)cc21 [GSK938890A]	76%	80%	92%	
CCn1c(-c2nonc2N)nc2c(C#CCN)ncc(OCCCN)c21 [GSK561866B]	52%	82%	66%	
CCOc1ccc2c(-c3ccnc(Nc4cc(OC)cc(C(F)(F)F)c4)n3)cnn2n1 [GW807982X]	55%	78%	50%	
CCN(CC)S(=O)(=O)c1ccc(OC)c(Nc2ncc(-c3ccccc3)o2)c1 [GW572401X]	63%	60%	82%	
CC1=C(C(=O)Nc2ccc3[nH]ncc3c2)C(c2ccc(F)cc2)NC(c2ccc(C(F)(F)F)nc2)=N1 (stereo not drawn) [GSK317354A]	68%	96%	96%	
Nc1nc(-c2ccc3c(c2)C(=Cc2cc(Br)c(O)c(Br)c2)C(=O)N3)cs1 [GW407323A]	64%	54%	41%	
Cc1nnc(-c2ccc(C)c(-c3ccc(C(=O)Nc4cccc(C#N)c4)cc3)c2)o1 [GW607117X]	72%	100%	90%	
CCS(=O)(=O)c1ccc(OC)c(Nc2ncc(-c3cccc(OC)c3)o2)c1 [GW580509X]	100%	82%	93%	
CN(C)c1cc2c(Nc3ccc4c(cnn4Cc4ccccc4)c3)ncnc2cn1 [GW282974X]	77%	70%	55%	
CCCN(CCS(C)(=O)=O)Cc1ccc(-c2ccc3ncnc(Nc4ccc(OCc5cccc(F)c5)c(Cl)c4)c3c2)o1 [GW621823A]	36%	42%	96%	
CC1=C(C(=O)Nc2ccc3[nH]nc(C)c3c2)C(c2ccc(C(F)(F)F)cc2)CC(=O)N1 (stereo not drawn) [GSK466314A]	79%	100%	79%	
N#Cc1cccc(Nc2ncc(-c3ccccc3)o2)c1 [GW627834A]	78%	75%	85%	
C[C@@H](Oc1cc(-n2cnc3ccc(OCC4CCN(C)CC4)cc32)sc1C(N)=O)c1ccccc1Cl [GSK571989A]	51%	53%	53%	
c1ccc(-c2n[nH]cc2-c2ccnc(-c3ccc(OCCn4ccnc4)cc3)c2)nc1 [GW711782X]	100%	74%	93%	
CCn1c(-c2nonc2N)nc2c(C#CC(C)(C)O)ncc(OC[C@@H]3CCCN3)c21 [GSK614526A]	65%	89%	100%	
COc1ccc(-c2nn3ncccc3c2-c2ccnc(Nc3ccc4c(c3)OCCO4)n2)cc1 [GW827106X]		32%	49%	remaining activity at 100 µM [1, 5]: 13%
Fc1ccc(-c2cc(-c3c[nH]nc3-c3ccccn3)ccn2)cc1 [GW680975X]	68%	84%	96%	
Cc1cccc(-c2n[nH]cc2-c2ccc3ncccc3n2)n1 [GW786460X]	82%			remaining activity at 100 µM [2]: 76%; remaining activity at 100 µM [3]: 91%
NC(=O)c1sc(-n2cnc3ccccc32)cc1OCc1ccccc1Br [GSK1023156A]	55%	82%	84%	
COc1ccc2cc(-c3c(-c4ccncc4)nc(-c4ccc(S(C)(=O)=O)cc4C)n3C)ccc2c1 [SB-633825]	36%	69%	56%	
NS(=O)(=O)c1ccc(N/C=C2\C(=O)Nc3ccc4ncsc4c32)cc1 [GW297361X]	107%	76%	86%	
c1ccc(COc2ccc(Nc3ncnc4ccc(-c5ccco5)cc34)cc2)cc1 [GW284372X]	56%	80%	100%	
CNC(=O)Oc1cc(C)c(/C=C/c2cncc(C(=O)NC)c2)c(C)c1 [GW432441X]		69%		remaining activity at 100 µM ([1]; read-out: RA [%] at 100 µM MurC): 68%; remaining activity at 100 µM [3]: 87%
COc1cccc(-n2ncc3c(N/N=C/c4cccc(F)c4)ncnc32)c1 [GW817394X]	64%	81%	46%	

Compound	remaining activity at 100 µM [1, 4]	remaining activity at 100 µM ([2]; Table S1, PKIS screening)	remaining activity at 100 µM ([3]; Table S1, PKIS screening)	other results
COc1cc2c(cc1Nc1nc(N3CCc4ccccc43)c3cc[nH]c3n1)N(C(=O)CN(C)C)CC2 [GSK2186269A]	23%	100%	26%	
FC(F)(F)c1ccc(-c2nn3ncccc3c2-c2ccnc(Nc3ccc4c(c3)OCCO4)n2)cc1 [GW828525X]		90%	47%	remaining activity at 100 µM [1, 5]: 21%
Cc1cc(-c2ccccn2)cc(C)c1C=Cc1cncc(-c2nn[nH]n2)c1 [Compound 6]				RA (%) MurC [1]: 59%; RA (%) MurD [2]: 83%; RA (%) MurF [3]: 76%
COc1c(C(N)=O)cc(-c2ccc(Cl)cc2)cc1-c1ccc(S(N)(=O)=O)cc1 [GSK711701A]	100%	99%	93%	
COc1ccc2[nH]c3c4[nH]c5ccc(OC)cc5c4c4c(c3c2c1)C(=O)NC4=O [GW296115X]	100%	87%	100%	
CNC(=O)Oc1cc(C)c(C=Cc2cncc(C(=O)NC)c2)c(C)c1 [Compound 13]				RA (%) MurC [1]: 68%; RA (%) MurD [2]: 69%; RA (%) MurF [3]: 87%
O=C1NC(=O)C(c2cccc(Cl)c2)=C1Nc1ccc(Cl)c(C(=O)O)c1 [SB-409513]	94%	88%	78%	
COc1ccc2c(-c3ccnc(Nc4cccc(OC(F)(F)F)c4)n3)cnn2n1 [GW810372X]	46%	70%	73%	
C[C@@H](Oc1cc(-n2cnc3ccc(OC4CCN(C)CC4)cc32)sc1C(N)=O)c1ccccc1Cl [GSK579289A]	67%	70%	66%	
CN1CCC(n2cnc(-c3ccc(F)cc3)c2-c2ccnc(N)n2)CC1 [SB-220455]		81%	100%	remaining activity at 100 µM [1, 5]: 76%
Fc1ccc(-c2nc3n(c2-c2ccncc2)CCS3)cc1 [SKF-86002-A2]				RA [%] at 100 µM MurC ([1]; Table S1, PKIS screening): 75%; RA [%] at 100 µM MurD [2]: 91; RA [%] at 100 µM MurF ([3]; Table S1, PKIS screening): 97%
NS(=O)(=O)c1ccc(NN=C2C(=O)Nc3ccc(C(=O)NCCCn4ccnc4)cc32)cc1 [GW290597X]	63%	92%	100%	
CCc1cccc(CC)c1/C=C/c1cncc(C(=O)NC)c1 [GW450241X]	67%	74%	76%	
Fc1ccc(-c2ncn(C3CCNCC3)c2-c2ccnc(Oc3ccc(Oc4ccccc4)cc3)n2)cc1 [SB-245392]	27%	41%	41%	
CN1CCC(C(=O)Nc2n[nH]c3nnc(-c4ccccc4)cc23)CC1.Cl [SB-678557-A]				RA [%] at 100 µM MurC ([1]; Table S1, PKIS screening): 74%; RA [%] at 100 µM MurD [2]: 76; RA [%] at 100 µM MurF ([3]; Table S1, PKIS screening): 95%
O=C1NC(=O)C(N2CCc3ccccc32)=C1c1ccc(Cl)cc1 [SB-333612]	100%	96%	100%	
N#Cc1c(NC(=O)c2ccc(F)cc2)sc2c1CCCC2 [SB-347804]	87%	78%	100%	
CNC(=O)c1cncc(/C=C/c2ccccc2Cl)c1 [GW445017X]	68%	87%	90%	
[O-][S+]1CCN(Cc2ccc(-c3ccc4ncnc(Nc5ccc(OCc6cccc(F)c6)c(Cl)c5)c4c3)o2)CC1 [GW576609A]	71%	54%	78%	
Cc1cc(O)cc(C)c1/C=C/c1cncc(C(=O)OC(C)(C)C)c1 [GW439255X]	75%	96%	69%	
CN(C)CCOc1ccc(-c2cc(-c3ccc4c(c3)CCC4=NO)c(-c3ccncc3)o2)cc1.Cl [SB-682330-A]				RA [%] at 100 µM MurC ([1]; Table S1, PKIS screening): 31%; RA [%] at 100 µM MurD [2]: 51; RA [%] at 100 µM MurF ([3]; Table S1, PKIS screening): 57%
COc1cc(/C=N/Nc2ncnc3c2cnn3C(C)C)ccc1O [GW644007X]	87%	91%	78%	
COc1cc(C)c(N(C)C(=O)CN(C)C)cc1Nc1nc(Nc2cccc(F)c2C(N)=O)c2cc[nH]c2n1 [GSK2219385A]		93%	93%	remaining activity at 100 µM [1, 5]: 73%
